Laboratory results published in ChEMBL document CHEMBL2311426, “Synthesis and antibacterial activity of novel water-soluble nocathiacin analogs” (Bioorg Med Chem Lett, 2013).
≈ marks a conversion by molar mass, not a printed value.

What was measured:
Type in all cases: functional
Settings in all cases: read-out: MIC100
Enterococcus faecalis = test: Antibacterial activity against Enterococcus faecalis C21560 by turbidity method
Streptococcus pneumoniae = test: Antibacterial activity against Streptococcus pneumoniae CL2883 by turbidity method
Staphylococcus aureus = test: Antibacterial activity against Staphylococcus aureus MB2865 by turbidity method

Structure (SMILES)	MIC (Enterococcus faecalis) [µg/mL]	MIC (Streptococcus pneumoniae) [µg/mL]	MIC (Staphylococcus aureus) [µg/mL]
CO/C(C)=C1/NC(=O)[C@H]([C@@H](C)O)NC(=O)c2csc(n2)-c2cc(O)c(-c3nc(CNCC(C)(C)N4CCOCC4)cs3)nc2-c2csc(n2)[C@@H]2COC(=O)c3c4c5c(cccc5n3O)COC(=O)[C@@H](O[C@H]3C[C@](C)(O)[C@H](N(C)C)[C@H](C)O3)[C@@H](OC4)[C@H](NC(=O)c3csc1n3)c1nc(cs1)C(=O)N2	0.03 (≈ 0.0201 µM)	0.00046 (≈ 0.000308 µM)	0.06 (≈ 0.0401 µM)
CO/C(C)=C1/NC(=O)[C@H]([C@@H](C)O)NC(=O)c2csc(n2)-c2cc(O)c(-c3nc(CNC(=O)C(NC(N)=O)c4ccc(O)cc4)cs3)nc2-c2csc(n2)[C@@H]2COC(=O)c3c4c5c(cccc5n3O)COC(=O)[C@@H](O[C@H]3C[C@](C)(O)[C@H](N(C)C)[C@H](C)O3)[C@@H](OC4)[C@H](NC(=O)c3csc1n3)c1nc(cs1)C(=O)N2 (some centres undefined)	> 1		> 1
C=C(NC(=O)c1csc(-c2nc3c(cc2O)-c2nc(cs2)C(=O)N[C@@H]([C@@H](C)O)C(=O)N/C(=C(\C)OC)c2nc(cs2)C(=O)N[C@@H]2c4nc(cs4)C(=O)N[C@@H](COC(=O)c4c5c6c(cccc6n4O)COC(=O)[C@@H](O[C@H]4C[C@](C)(O)[C@H](N(C)C)[C@H](C)O4)[C@H]2OC5)c2nc-3cs2)n1)C(N)=O [MJ347-81F4 A]	0.03 (≈ 0.0209 µM)	0.002 (≈ 0.00139 µM)	0.007 (≈ 0.00487 µM)
CO/C(C)=C1/NC(=O)[C@H]([C@@H](C)O)NC(=O)c2csc(n2)-c2cc(O)c(-c3nc(CNCC[C@H](O)[C@H](O)CO)cs3)nc2-c2csc(n2)[C@@H]2COC(=O)c3c4c5c(cccc5n3O)COC(=O)[C@@H](O[C@H]3C[C@](C)(O)[C@H](N(C)C)[C@H](C)O3)[C@@H](OC4)[C@H](NC(=O)c3csc1n3)c1nc(cs1)C(=O)N2	1 (≈ 0.679 µM)	0.015 (≈ 0.0102 µM)	0.125 (≈ 0.0849 µM)
CO/C(C)=C1/NC(=O)[C@H]([C@@H](C)O)NC(=O)c2csc(n2)-c2cc(O)c(-c3nc(CNC(=O)NCCN(C)C)cs3)nc2-c2csc(n2)[C@@H]2COC(=O)c3c4c5c(cccc5n3O)COC(=O)[C@@H](O[C@H]3C[C@](C)(O)[C@H](N(C)C)[C@H](C)O3)[C@@H](OC4)[C@H](NC(=O)c3csc1n3)c1nc(cs1)C(=O)N2	0.5 (≈ 0.34 µM)		0.125 (≈ 0.0851 µM)
CO/C(C)=C1/NC(=O)[C@H]([C@@H](C)O)NC(=O)c2csc(n2)-c2cc(O)c(-c3nc(CN(CCO)CCO)cs3)nc2-c2csc(n2)[C@@H]2COC(=O)c3c4c5c(cccc5n3O)COC(=O)[C@@H](O[C@H]3C[C@](C)(O)[C@H](N(C)C)[C@H](C)O3)[C@@H](OC4)[C@H](NC(=O)c3csc1n3)c1nc(cs1)C(=O)N2	0.12 (≈ 0.0832 µM)	0.0075 (≈ 0.0052 µM)	0.06 (≈ 0.0416 µM)
CO/C(C)=C1/NC(=O)[C@H]([C@@H](C)O)NC(=O)c2csc(n2)-c2cc(O)c(-c3nc(CNCC(O)CO)cs3)nc2-c2csc(n2)[C@@H]2COC(=O)c3c4c5c(cccc5n3O)COC(=O)[C@@H](O[C@H]3C[C@](C)(O)[C@H](N(C)C)[C@H](C)O3)[C@@H](OC4)[C@H](NC(=O)c3csc1n3)c1nc(cs1)C(=O)N2 (some centres undefined)	0.25 (≈ 0.175 µM)	0.0075 (≈ 0.00525 µM)	0.06 (≈ 0.042 µM)
CO/C(C)=C1/NC(=O)[C@H]([C@@H](C)O)NC(=O)c2csc(n2)-c2cc(O)c(-c3nc(CNC(=O)NCC(O)CO)cs3)nc2-c2csc(n2)[C@@H]2COC(=O)c3c4c5c(cccc5n3O)COC(=O)[C@@H](O[C@H]3C[C@](C)(O)[C@H](N(C)C)[C@H](C)O3)[C@@H](OC4)[C@H](NC(=O)c3csc1n3)c1nc(cs1)C(=O)N2 (some centres undefined)	0.5 (≈ 0.34 µM)	0.015 (≈ 0.0102 µM)	0.06 (≈ 0.0408 µM)
CO/C(C)=C1/NC(=O)[C@H]([C@@H](C)O)NC(=O)c2csc(n2)-c2cc(O)c(-c3nc(CNC(=O)NCCc4cnc[nH]4)cs3)nc2-c2csc(n2)[C@@H]2COC(=O)c3c4c5c(cccc5n3O)COC(=O)[C@@H](O[C@H]3C[C@](C)(O)[C@H](N(C)C)[C@H](C)O3)[C@@H](OC4)[C@H](NC(=O)c3csc1n3)c1nc(cs1)C(=O)N2	0.5 (≈ 0.335 µM)		0.125 (≈ 0.0838 µM)
